# Legend:
# hSGLT1 [1] = molecular target: T1, hSGLT1 (Homo sapiens, UniProt P13866); test: [14C]AMG uptake in oocytes after incubation with tripeptide in the medium; type: cell-based; conditions: pH 6.5
# T1 construct: expressed in transfected cells; host or cells: Xenopus laevis oocytes (cRNA injection)
# T1 sequence (P13866 1-664): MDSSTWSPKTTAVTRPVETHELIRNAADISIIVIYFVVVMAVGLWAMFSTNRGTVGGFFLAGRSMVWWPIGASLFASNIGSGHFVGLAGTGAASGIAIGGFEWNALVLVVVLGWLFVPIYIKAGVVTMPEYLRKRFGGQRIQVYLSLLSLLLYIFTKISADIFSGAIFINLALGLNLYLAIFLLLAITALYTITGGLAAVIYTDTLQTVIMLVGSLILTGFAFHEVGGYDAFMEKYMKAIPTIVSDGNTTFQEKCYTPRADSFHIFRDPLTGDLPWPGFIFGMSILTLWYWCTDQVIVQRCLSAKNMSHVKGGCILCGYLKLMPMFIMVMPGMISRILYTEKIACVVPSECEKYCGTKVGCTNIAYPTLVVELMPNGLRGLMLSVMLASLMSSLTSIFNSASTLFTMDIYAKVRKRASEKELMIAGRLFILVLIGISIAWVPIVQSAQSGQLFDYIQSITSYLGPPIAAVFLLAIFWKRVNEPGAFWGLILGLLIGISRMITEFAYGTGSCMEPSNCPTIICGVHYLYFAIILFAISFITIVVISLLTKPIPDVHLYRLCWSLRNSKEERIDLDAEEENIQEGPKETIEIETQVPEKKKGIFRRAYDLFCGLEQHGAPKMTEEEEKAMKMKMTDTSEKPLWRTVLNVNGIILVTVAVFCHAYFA
# Method: In a different experimental setup, oocytes were injected with SGLT1 cRNA (2.5 ng per oocyte) or with hSGLT1 cRNA (2.5 ng per oocyte) plus hPEPT1 cRNA (10 ng per oocyte) and the oocytes were incubated 3 days for expression. Thereafter the oocytes were incubated 30 min with Ori buffer adjusted to pH 6.5 or with Ori buffer adjusted to pH 6.5 containing 3 mM of the tested tripeptide. Thereafter oocytes were washed with Ori buffer (pH 7.4) and uptake of [^14C]AMG was measured. • (F) Measurements of [^14C]AMG Uptake
# Uptake measurements were performed as described (Veyhl (2003), J. Membrane Biol., 196, 71-81). Oocytes were incubated for 15 min at room temperature in ORi buffer containing 50 μM [^14C]AMG without or with 100 μM of the SGLT1 inhibitor phlorizin. The uptake was blocked and oocytes were washed with ice cold Ori buffer containing 100 μM phlorizin. Radioactivity in the oocytes was measured by liquid scintillation counting.
# Thereafter the oocytes were washed with neutral Ori buffer and the hSGLT1 expressed uptake of 50 μM [^14C]AMG was measured (FIG. 7). […] Incubation of oocytes expressing hSGLT1 plus hPEPT1 with PCQ had no effect on the expressed uptake of [^14C]AMG.
# SGLT1 = SGLT1 (Mus musculus, UniProt Q8C3K6); conditions: 60 min pre-incubation, pH 6.5, 3 mM QCP, 0.1 mM D-glucose
# Method: Walls of small intestinal mucosa from mice are inserted into an Ussing chamber and the SGLT1 mediated transepitehila currents are measured that are induced by addition of 0.1 mM D-glucose to the mucosal side. […] After washing glucose-induced transepithelial currents are measured.
# rbSGLT1 = molecular target: T2, rbSGLT1 (Oryctolagus cuniculus, UniProt P11170); test: rbSGLT1 expressed [14C]AMG uptake in oocytes after peptide injection; type: cell-based, rabbit; conditions: 50 nl containing 3 mM of each peptide, 30 min, 50 μM [14C]AMG; compared with hSGLT1
# T2 construct: expressed in transfected cells; host or cells: Xenopus laevis oocytes (cRNA injection)
# T2 sequence (P11170 1-662): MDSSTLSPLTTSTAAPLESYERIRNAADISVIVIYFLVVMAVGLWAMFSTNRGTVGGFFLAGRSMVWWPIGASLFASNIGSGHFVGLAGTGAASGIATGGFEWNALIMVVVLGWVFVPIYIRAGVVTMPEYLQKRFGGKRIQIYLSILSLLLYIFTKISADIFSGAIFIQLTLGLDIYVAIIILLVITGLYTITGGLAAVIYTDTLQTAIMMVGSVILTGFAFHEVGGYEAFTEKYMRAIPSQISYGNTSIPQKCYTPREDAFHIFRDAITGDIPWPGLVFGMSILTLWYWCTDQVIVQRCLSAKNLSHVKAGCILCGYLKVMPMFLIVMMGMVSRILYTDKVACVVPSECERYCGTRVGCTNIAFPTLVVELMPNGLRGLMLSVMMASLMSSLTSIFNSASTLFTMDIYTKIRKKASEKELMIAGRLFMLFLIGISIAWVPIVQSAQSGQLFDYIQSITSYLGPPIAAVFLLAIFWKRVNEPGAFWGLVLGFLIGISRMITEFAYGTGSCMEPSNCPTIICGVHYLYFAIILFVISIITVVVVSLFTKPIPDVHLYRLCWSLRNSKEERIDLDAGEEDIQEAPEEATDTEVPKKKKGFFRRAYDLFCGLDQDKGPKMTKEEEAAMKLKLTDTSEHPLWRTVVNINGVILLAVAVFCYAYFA
# Method: (§1) The oocytes were incubated for three days at 16° C. in ORi buffer (in mM: 5 HEPES-Tris, pH 7.4, 100 NaCl, 3 KCl, 2 CaCl2, and 1 MgCl2). […] The oocytes were superfused with Ori buffer titrated to pH 6.5, the membrane potential of the oocytes was clamped to −40 mV, and inward current induced by superfusion with Ori buffer (pH 6.5) containing 5 mM of a control dipeptide or 5 mM of the tested tripeptide was measured. • (D) Expression and Purification of hRS1
# To develop drugs on the basis of the identified peptides animal models are required.
# hPEPT1 = molecular target: T3, hPEPT1 (Homo sapiens, UniProt P46059); test: Electrogenic peptide transport by hPEPT1 in oocytes, two-electrode voltage clamp; type: cell-based; conditions: pH 6.5
# T3 construct: expressed in transfected cells; host or cells: Xenopus laevis oocytes (30 ng cRNA per oocyte)
# T3 sequence (P46059 1-708): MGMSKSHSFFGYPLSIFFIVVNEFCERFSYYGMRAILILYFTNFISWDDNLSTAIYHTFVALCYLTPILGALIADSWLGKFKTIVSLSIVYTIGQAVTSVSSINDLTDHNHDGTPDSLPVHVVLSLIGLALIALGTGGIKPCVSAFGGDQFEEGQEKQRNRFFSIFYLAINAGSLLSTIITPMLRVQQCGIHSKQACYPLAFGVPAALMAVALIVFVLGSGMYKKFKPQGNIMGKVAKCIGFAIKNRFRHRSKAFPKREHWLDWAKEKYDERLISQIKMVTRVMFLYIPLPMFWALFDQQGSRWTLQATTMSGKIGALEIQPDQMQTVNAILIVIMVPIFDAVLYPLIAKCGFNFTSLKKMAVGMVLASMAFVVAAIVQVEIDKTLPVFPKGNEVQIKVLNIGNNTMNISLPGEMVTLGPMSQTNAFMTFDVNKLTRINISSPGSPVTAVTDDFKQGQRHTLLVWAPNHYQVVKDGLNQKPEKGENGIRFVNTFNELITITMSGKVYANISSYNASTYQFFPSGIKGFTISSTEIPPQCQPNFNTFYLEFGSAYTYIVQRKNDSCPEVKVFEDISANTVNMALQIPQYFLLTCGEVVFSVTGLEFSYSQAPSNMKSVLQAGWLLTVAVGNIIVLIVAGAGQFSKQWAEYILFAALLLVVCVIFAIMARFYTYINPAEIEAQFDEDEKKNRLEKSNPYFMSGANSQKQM
# Method: as §1
# [2] = drinking water pH 6.0 with 10 mM QCP, 2 months, standard chow or sugar low diet
# Excerpt: The body weight development with and without peptide treatment is compared over 2 months. […] In corresponding experiments, rabbits are to be employed.
# hSGLT1 [3] = molecular target: T1, hSGLT1; test: hSGLT1 expressed [14C]AMG uptake in Xenopus oocytes after injection of hRS1 protein or peptides; type: cell-based
# [4] = system: sodium dependent amino acid transporters; conditions: 60 min, pH 6.5, 3 mM QCP; 10 mM amino acids
# Method: Walls of small intestinal mucosa from mice are inserted into an Ussing chamber and transepitehial currents are measured that are induced by addition of 10 mM of various amino acids to the mucosal side.
# hOCT2 = hOCT2 (Homo sapiens, UniProt O15244); conditions: intracellular AMG 0.1 mM, <0.01 mM or 10 mM
# Method: Corresponding measurements were performed in the presence of intracellular AMG concentrations of 0.1 mM, <0.01 mM or 10 mM.
# SGLT1, sequence (Q8C3K6 whole entry): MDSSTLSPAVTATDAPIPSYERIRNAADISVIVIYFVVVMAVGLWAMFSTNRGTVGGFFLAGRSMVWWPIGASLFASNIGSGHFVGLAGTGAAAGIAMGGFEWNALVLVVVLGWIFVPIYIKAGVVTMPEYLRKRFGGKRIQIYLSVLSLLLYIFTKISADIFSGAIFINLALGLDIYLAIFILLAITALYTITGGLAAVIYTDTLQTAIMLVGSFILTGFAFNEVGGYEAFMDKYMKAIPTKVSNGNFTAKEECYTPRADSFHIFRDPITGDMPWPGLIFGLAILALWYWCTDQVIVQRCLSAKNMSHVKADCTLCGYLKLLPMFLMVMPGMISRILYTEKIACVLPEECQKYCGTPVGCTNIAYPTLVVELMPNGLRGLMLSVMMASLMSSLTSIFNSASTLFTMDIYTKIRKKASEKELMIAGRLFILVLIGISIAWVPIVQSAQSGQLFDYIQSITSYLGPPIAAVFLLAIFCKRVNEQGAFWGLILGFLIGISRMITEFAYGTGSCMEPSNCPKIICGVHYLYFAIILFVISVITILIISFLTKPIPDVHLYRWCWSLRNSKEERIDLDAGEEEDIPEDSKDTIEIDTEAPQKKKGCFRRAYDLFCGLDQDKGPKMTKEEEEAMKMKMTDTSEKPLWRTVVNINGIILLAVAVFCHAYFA
# hOCT2, sequence (O15244 whole entry): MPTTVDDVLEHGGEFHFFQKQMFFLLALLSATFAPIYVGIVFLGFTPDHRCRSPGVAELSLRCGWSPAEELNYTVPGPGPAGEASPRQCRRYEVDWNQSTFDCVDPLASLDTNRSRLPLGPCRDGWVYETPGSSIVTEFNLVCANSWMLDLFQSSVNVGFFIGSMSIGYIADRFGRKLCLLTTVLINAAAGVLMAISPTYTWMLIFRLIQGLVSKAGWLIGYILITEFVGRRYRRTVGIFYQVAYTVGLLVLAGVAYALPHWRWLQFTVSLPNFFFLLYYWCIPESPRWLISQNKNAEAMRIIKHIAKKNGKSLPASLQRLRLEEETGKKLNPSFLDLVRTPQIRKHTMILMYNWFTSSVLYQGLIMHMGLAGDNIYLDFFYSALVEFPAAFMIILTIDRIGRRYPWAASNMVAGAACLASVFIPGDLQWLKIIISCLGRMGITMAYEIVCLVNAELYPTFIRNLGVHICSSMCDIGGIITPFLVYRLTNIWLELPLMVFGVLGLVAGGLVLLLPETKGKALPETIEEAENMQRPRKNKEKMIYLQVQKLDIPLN
substance,measurement,setting,value
Glutamine-Cysteine-Proline [QCP],effect on AMG uptake in oocytes in which hSGLT1 but not hPEPT1 was expressed,hSGLT1 [1],no effect
same,inhibition of [14C]AMG uptake in oocytes expressing hSGLT1 plus hPEPT1,hSGLT1 [1],about 50%
same,transepithelial glucose flux,SGLT1,inhibits transepithelial glucose flux
same,effect on glucose uptake expressed by rbSGLT1,rbSGLT1,same effect
same,inward current in control oocytes not injected with hPEP1-cRNA,hPEPT1,no inward currents
same,inward current induced in oocytes expressing hPEPT1,hPEPT1,significant inward currents
same,body weight after feeding,[2],body weight is reduced
same,inhibition of AMG uptake in the absence of BTXB,hSGLT1 [3],inhibited
same,inhibition of AMG uptake in the presence of BTXB,hSGLT1 [3],no significant inhibition
same,inhibition of glucose uptake expressed by hSGLT1,hSGLT1 [3],about 50%
same,inhibition of hSGLT1 expressed AMG uptake,hSGLT1 [3],35-40%
same,inhibition of hSGLT1 expressed AMG uptake after stimulation of protein kinase C,hSGLT1 [3],not changed
same,inhibition of hSGLT1 expressed AMG uptake with coexpressed dominant negative mutant of dynamin I,hSGLT1 [3],not changed
same,inhibition of hSGLT1 expressed uptake of AMG after 3 h,hSGLT1 [3],60%
same,inhibition of hSGLT1 expressed uptake of AMG after 5 h,hSGLT1 [3],about 40%
same,inhibition of hSGLT1 expressed uptake of AMG after 10 h,hSGLT1 [3],20-30%
same,inhibition of hSGLT1 in dependence of intracellular monosaccharide concentration,hSGLT1 [3],inhibits hSGLT1 at low or high concentrations of intracellular monosaccharides
same,inhibitory effect on expression of hSGLT1 when the exocytotic pathway is blocked,hSGLT1 [3],could be prevented
same,intracellular concentration of QCP giving 35-40% inhibition of hSGLT1 expressed glucose uptake,hSGLT1 [3],below 5 nM
same,transepithelial flux of amino acids,[4],inhibits transepithelial flux of amino acids
same,hOCT2 expressed [14C]TEA uptake after injection,hOCT2,appears not to be inhibited

# From patent US9155778B2, “Tripeptides that down regulate the activity of plasma membrane transporters including sodium-D-glucose cotransporter SgIt1” (JULIUS-MAXMILLIANS-UNIVERSITAT WURZBURG, priority 2005, dated 2015)
